Reference: patent US20200231607A1, “TRISUBSTITUTEDSILYLHETEROARYLOXYQUINOLINES AND ANALOGUES” (Bayer Aktiengesellschaft, priority 2017, published 2020)

Columns and labels:
[1] = HPLC, reversed-phase C 18, 40° C., 0.1% aqueous formic acid and acetonitrile, gradient 10% to 95% acetonitrile
Procedure: temperature: 40° C.; mobile phases: 0.1% aqueous formic acid and acetonitrile; linear gradient from 10% acetonitrile to 95% acetonitrile;
Calibration was carried out using unbranched alkan-2-ones (comprising 3 to 16 carbon atoms) with known log P values (determination of the log P values by the retention times using linear interpolation between two successive alkanones). lambda-max-values were determined using UV-spectra from 200 nm to 400 nm and the peak values of the chromatographic signals.

[2] = system: Colletotrichum lindemuthianum; experiment: In vitro cell test on Colletotrichum lindemuthianum; type: cell-based; details: 144 h, 20 ppm of active ingredient, 6 days incubation, liquid culture, spectrometric measurement of mycelium growth, read-out: efficacy (inhibition of fungal growth)
Procedure: (§1) Solvent: dimethyl sulfoxide Culture medium: 14.6 g anhydrous D-glucose (VWR), • 7.1 g mycological peptone (Oxoid), • 1.4 g granulated yeast extract (Merck), QSP 1 liter Inoculum: spore suspension The tested compounds were solubilized in dimethyl sulfoxide and the solution used to prepare the required range of concentrations. […] A spore suspension of Colletotrichum lindemuthianum was prepared and diluted to the desired spore density. The compounds were evaluated for their ability to inhibit spore germination and mycelium growth in liquid culture assay. The compounds were added in the desired concentration to the culture medium with spores. After 6 days incubation, fungi-toxicity of compounds was determined by spectrometric measurement of mycelium growth. Inhibition of fungal growth was determined by comparing the absorbance values in wells containing the tested compound with the absorbance in control wells without the tested compound.

Pyricularia oryzae = experiment: microbe, parasite or virus in culture; type: cell-based; details: 120 h, read-out: efficacy (inhibition of fungal growth)
Leptnosphaeria nodorum = experiment: In vitro cell test on Leptnosphaeria nodorum; type: cell-based; details: 120 h; 20 ppm of active ingredient; 5 days incubation; liquid culture, spectrometric measurement of mycelium growth; read-out: efficacy (inhibition of fungal growth)
Procedure: as §1, with “of Leptnosphaeria nodorum” for “of Colletotrichum lindemuthianum”, “After 5” for “After 6”

Structure (SMILES) | chromatographic logP [1] | also measured
C[Si](C)(C)c1cnccc1Oc1cnc2ccccc2n1 [I.01] |  | logP [1]: 2.64
C[Si](C)(C)c1cnccc1Oc1cnc2ccccc2c1 [I.02] |  | logP [1]: 2.15
C[Si](C)(C)c1c(Oc2cnc3ccccc3c2)ccnc1F [I.03, 3-{[2-fluoro-3-(trimethylsilyl)pyridin-4-yl]oxy}quinoline] | 4.08 | inhibition at 20 ppm [2]: 90 to 100%; inhibition at 20 ppm (Pyricularia oryzae): 90 to 100%; inhibition at 20 ppm (Leptnosphaeria nodorum): 90 to 100%
C[Si](C)(Cc1ccccc1)c1c(Oc2cnc3ccccc3c2)ccnc1F [I.06, 3-({3-[benzyl(dimethyl)silyl]-2-fluoropyridin-4-yl}oxy)quinoline] | 4.78 | inhibition at 20 ppm [2]: 80 to 89%; inhibition at 20 ppm (Pyricularia oryzae): 90 to 100%; inhibition at 20 ppm (Leptnosphaeria nodorum): 80 to 89%
C[Si](C)(C)c1cnccc1Oc1cnc2c(F)cccc2n1 [I.15] |  | logP [1]: 2.75
Cc1nc2c(F)c(F)ccc2nc1Oc1ccncc1[Si](C)(C)C [I.18] |  | logP [1]: 2.80
Cc1nc2c(F)c(F)ccc2nc1Oc1cnccc1[Si](C)(C)C [I.19] |  | logP [1]: 3.94
Cc1nc2ccccc2nc1Oc1ccncc1[Si](C)(C)C [I.23] |  | logP [1]: 2.49
Cc1nc2ccccc2n1Cc1sccc1[Si](C)(C)C [I.24, 2-methyl-1-{[3-(trimethylsilyl)-2-thienyl]methyl}-1H-benzimidazole] | 2.13 | inhibition at 20 ppm [2]: 90 to 100%; inhibition at 20 ppm (Pyricularia oryzae): 90 to 100%; inhibition at 20 ppm (Leptnosphaeria nodorum): 90 to 100%
C[Si](C)(C)c1sccc1Cn1cnc2ccccc21 [I.25] |  | logP [1]: 2.08
C[Si](C)(c1ccccc1)c1sccc1Cn1cnc2ccccc21 [I.26] |  | logP [1]: 2.49
Cc1nc2c(F)c(F)ccc2cc1Cc1sccc1[Si](C)(C)C [I.28, 7,8-difluoro-2-methyl-3-{[3-(trimethylsilyl)-2-thienyl]methyl}-quinoline] | 5.25 | 
Cc1nc2c(F)c(F)ccc2nc1Oc1cccnc1Br [IIa.01, 2-[(2-bromopyridin-3-yl)oxy]-5,6-difluoro-3-methylquinoxaline] | 3.26 | 
Cc1nc2c(F)c(F)ccc2nc1Oc1cc(Cl)cnc1Br [IIa.02, 2-[(2-bromo-5-chloropyridin-3-yl)oxy]-5,6-difluoro-3-methylquinoxaline] | 4.3 | 
Fc1ccc2nc(Oc3cccnc3Br)cnc2c1F [IIa.03, 2-[(2-bromopyridin-3-yl)oxy]-5,6-difluoroquinoxaline] | 2.96 | 
Fc1cccc2cc(Nc3cccnc3Cl)cnc12 [IIa.04, N-(2-chloropyridin-3-yl)-8-fluoroquinolin-3-amine] | 2.14 | 
Fc1nccc(Oc2cnc3ccccc3c2)c1Br [IIb.01, 3-[(3-bromo-2-fluoropyridin-4-yl)oxy]quinoline] | 2.96 | logP [1]: 2.92
Cc1nc2c(F)c(F)ccc2nc1Oc1cc(Cl)ncc1Br [IIb.02, 2-[(5-bromo-2-chloropyridin-4-yl)oxy]-5,6-difluoro-3-methylquinoxaline] | 4.2 | 
Fc1ccc2nc(Oc3ccncc3Br)cnc2c1F [IIb.03, 2-[(3-bromopyridin-4-yl)oxy]-5,6-difluoroquinoxaline] | 1.81 | 

Structure (SMILES) | chromatographic logP [1] | also measured
Clc1nccc(Nc2cnc3ccccc3c2)c1Br [IIb.04, N-(3-bromo-2-chloropyridin-4-yl)quinolin-3-amine] | 2.35 | 
COc1nccc(Oc2cc3ccc(F)c(F)c3nc2C)c1Br [IIb.05, 3-[(3-bromo-2-methoxypyridin-4-yl)oxy]-7,8-difluoro-2-methylquinoline] | 3.85 | 
Fc1nccc(Oc2cnc3c(F)cccc3c2)c1Br [IIb.06, 3-[(3-bromo-2-fluoropyridin-4-yl)oxy]-8-fluoroquinoline] | 2.98 | 
Clc1nccc(Oc2cnc3ccccc3c2)c1Br [IIb.07, 3-[(3-bromo-2-chloropyridin-4-yl)oxy]quinoline] | 2.35 | 
Fc1nccc(Nc2cnc3ccccc3c2)c1Br [IIb.08, N-(3-bromo-2-fluoropyridin-4-yl)quinolin-3-amine] | 2.25 | 
Cc1nc2c(F)c(F)ccc2cc1Oc1ccnc(C(F)(F)F)c1Br [IIb.09, 3-{[3-bromo-2-(trifluoromethyl)pyridin-4-yl]oxy}-7,8-difluoro-2-methylquinoline] | 4.01 | 
Cc1nc2c(F)c(F)ccc2cc1Nc1ccnc(C(F)(F)F)c1Br [IIb.10, N-[3-bromo-2-(trifluoromethyl)pyridin-4-yl]-7,8-difluoro-2-methylquinolin-3-amine] | 3.37 | 
Cc1nc2c(F)c(F)ccc2nc1Oc1cncc(Cl)c1Br [IIc.01, 2-[(4-bromo-5-chloropyridin-3-yl)oxy]-5,6-difluoro-3-methylquinoxaline] | 4.06 | 
Cc1nc2ccccc2cc1Oc1cnccc1Br [IIc.02, 3-[(4-bromopyridin-3-yl)oxy]-2-methylquinoline] | 2.44 | 
Cc1nc2c(F)c(F)ccc2nc1Oc1cnccc1Br [IIc.03, 2-[(4-bromopyridin-3-yl)oxy]-5,6-difluoro-3-methylquinoxaline] | 3.19 | 
Cc1nc2c(F)c(F)ccc2nc1Oc1ncc(Cl)cc1Br [IId.01, 2-[(3-bromo-5-chloropyridin-2-yl)oxy]-5,6-difluoro-3-methylquinoxaline] | 4.72 | 
Cc1nc2c(F)c(F)ccc2cc1Nc1ncc(Cl)cc1Br [IId.02, N-(3-bromo-5-chloropyridin-2-yl)-7,8-difluoro-2-methylquinolin-3-amine] | 4.36 | 
Clc1ncnc(Oc2cnc3ccccc3c2)c1Br [IIe.01, 3-[(5-bromo-6-chloropyrimidin-4-yl)oxy]quinoline] | 3.09 | 
Cc1nc2c(F)c(F)ccc2cc1Oc1sccc1Br [IIf.01, 3-[(3-bromo-2-thienyl)oxy]-7,8-difluoro-2-methylquinoline] | 4.23 | 
Clc1cc(Oc2cnc3ccccc3c2)ccn1 [VIIa.01, 3-[(2-chloropyridin-4-yl)oxy]quinoline] | 2.47 | 
Cc1nc2ccccc2cc1Oc1ccnc(F)c1 [VIIa.02, 3-[(2-fluoropyridin-4-yl)oxy]-2-methylquinoline] | 2.17 | 
Fc1cc(Oc2cnc3ccccc3c2)ccn1 [VIIa.03, 3-[(2-fluoropyridin-4-yl)oxy]quinoline] | 2.25 | 
Fc1cc(Oc2cnc3ccccc3c2)ncn1 [VIIb.01, 3-[(6-fluoropyrimidin-4-yl)oxy]quinoline] | 2.08 | 
